Data: patent US6121323A, “Bishydroxyureas” (3M Innovative Properties Company, priority 1997, dated 2000)

Key:
5-lipoxygenase = target: T1, 5-lipoxygenase (Homo sapiens, UniProt P09917); experiment: 5-Lipoxygenase inhibition in human leukocytes (LTC4 by radioimmunoassay); type: cell-based; details: A23187 stimulated, LTC4 readout, read-out: IC50 (concentration producing 50% leukotriene biosynthesis inhibition)
T1 construct: endogenous in cells; host or cells: leukocytes from whole human blood (EDTA, dextran sedimentation, hypotonic lysis)
T1 sequence (P09917 1-674): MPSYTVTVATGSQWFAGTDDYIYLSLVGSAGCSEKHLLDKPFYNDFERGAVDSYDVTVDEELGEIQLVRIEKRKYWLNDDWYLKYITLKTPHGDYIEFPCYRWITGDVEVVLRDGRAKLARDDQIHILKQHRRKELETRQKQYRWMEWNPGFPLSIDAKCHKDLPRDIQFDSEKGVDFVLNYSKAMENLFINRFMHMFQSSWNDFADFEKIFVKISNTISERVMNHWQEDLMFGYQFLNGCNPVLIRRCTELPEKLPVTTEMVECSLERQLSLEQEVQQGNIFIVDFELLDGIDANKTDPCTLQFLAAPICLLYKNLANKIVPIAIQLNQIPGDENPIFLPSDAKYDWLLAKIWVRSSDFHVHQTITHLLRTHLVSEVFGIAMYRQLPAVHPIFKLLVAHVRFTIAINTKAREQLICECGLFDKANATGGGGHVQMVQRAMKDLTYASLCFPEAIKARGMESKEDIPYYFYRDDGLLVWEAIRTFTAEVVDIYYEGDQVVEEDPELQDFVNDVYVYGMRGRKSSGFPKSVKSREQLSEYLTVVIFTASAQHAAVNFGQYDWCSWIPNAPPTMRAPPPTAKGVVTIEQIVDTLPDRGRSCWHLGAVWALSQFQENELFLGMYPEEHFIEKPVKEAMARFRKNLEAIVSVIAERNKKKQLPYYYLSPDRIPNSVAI
Experimental: 5-LIPOXYGENASE INHIBITION IN HUMAN LEUKOCYTES
The test method described below measures the ability of compounds of the invention to inhibit 5-lipoxygenase activity in human leukocytes.
Whole human blood is collected by venipuncture into EDTA (1.4 mL of 0.25M per 60 mL of whole blood). The red blood cells are sedimented with a 6% dextran/0.9% sodium chloride solution at a ratio of 25 mL whole blood to 15 mL dextran solution. The blood/dextran combination is mixed by inversion and the red blood cells are allowed to settle out for 45 minutes at ambient temperature. The plasma/dextran supernatant is removed then centrifuged at ambient temperature at 3000 rpm for 10 minutes. The plasma/dextran supernatant is removed and the cells are resuspended in 10 mL of the plasma/dextran solution. The cell suspension is combined with 20 mL of water, mixed for 1.5 minutes then immediately combined with 10 mL of 3.6% sodium chloride, mixed and centrifuged at ambient temperature at 3000 rpm for 10 minutes. The pellet is washed with 40 mL of Tris buffer (5.55 mM dextrose, 15.36 mM Tris base, 136.9 mM sodium chloride with pH 7.3-7.4) then centrifuged at 3000 rpm for 10 minutes. The pellet is then resuspended into Tris buffer containing 1 mM calcium chloride to provide approximately 1.0×10^7 cells/mL.
Compounds are dissolved in dimethyl sulfoxide. Compounds are tested at concentrations of 100, 33, 11, 3.7, 1.2 and 0.41 μM. Each concentration is tested in duplicate.
A 15 μL portion of Tris buffer containing 1 mM calcium chloride is added to each well of a 96 well microtiter plate. A 1 μL portion of drug solution or vehicle (dimethyl sulfoxide) is added to each well followed by the addition of a 75 μL portion of the cell suspension. The plates are gently mixed then allowed to stand at ambient temperature for 10 minutes. A 10 μL portion of 30 μM A23187 Calcium Ionophore (prepared by dissolving the ionophore in DMSO and then diluting 1:80 into the Tris buffer) is added to each well except the wells that contain the blanks. The blank wells measure the level of LTC4 production in the absence of A23187. The plates are gently mixed then incubated at 37° C. for 10 minutes.
Following incubation the plates are centrifuged at 2000 rpm for 1.5 minutes and the supernatant is removed as quickly as possible to stop the reaction. The supernatants are frozen at -20° C. until they are assayed.
The supernatants are assayed for the presence of Leukotriene C4 by radioimmunoassay which is performed according to the manufacturer's instructions (Advanced Magnetics; Cambridge, Mass.). Inhibition of leukotriene biosynthesis is calculated as the ratio of the amount of LTC4 formed in the presence (LTC4 +cpd) and absence (LTC4 no cpd) of compound according to the following equation. [formula] IC50 values (concentrations of compound producing 50% leukotriene biosynthesis inhibition) are calculated by linear regression analysis of percentage inhibition versus log compound concentration plots.

[1] = tested on: Leukotriene B4 production in rat blood; experiment: Rat ex vivo Leukotriene B4 inhibition; type: in vivo; details: 50 mg/Kg oral, 2 hours post dose, ex vivo A23187 challenge
Experimental: RAT EX VIVO LEUKOTRIENE B4 INHIBITION
The test method described below measures the ability of a compound when administrated orally to rats to inhibit the production of Leukotriene B4 in their blood which is drawn and challenged.
Rats (CD, male, non-fasted, 250 g) are lightly anesthetized with carbon dioxide and an approximately 0.75 mL sample of whole blood is obtained via cardiac puncture. The sample is dispensed into 12×75 mm polypropylene tubes containing 8-10 μL of 10,000 units/mL heparin, mixed and then maintained on ice. The rats are allowed to recover approximately one hour then dosed orally with compound dissolved in PEG 400 at a 5 mL/Kg volume. Five (5) rats are utilized per group. Two (2) hours post dose the rats are again anesthetized with carbon dioxide and the blood sampled again via cardiac puncture.
Duplicate 200 μL portions of blood are added to 1.0 mL polypropylene tubes. A 10 μL portion of 1 mM A23 187 Calcium Ionophore in dimethyl sulfoxide/Tris buffer is added to each tube. The tubes are gently vortexed then incubated in a 37° C. water bath for 30 minutes. The tubes are then centrifuged at 4000 rpm for 10 minutes. 50 μL portions of plasma are transferred to 1.0 mL tubes containing 200 μL of methanol. The tubes are vortexed then placed in the freezer overnight.
The tubes are removed from the freezer then centrifuged at 4000 rpm for 10 minutes. 20 μL portions of the methanol/plasma supernatant and 10 μl methanol dilutions of LTB4 standard are transferred to 96 well v-bottom microtiter plates. The plates are vacuum dried at 40° C. A 40 μL portion of LTB4 radioimmunoassay buffer is added to each well. The plate is bath sonicated for 5 minutes then assayed according to the manufacturer's instructions (Advanced Magnetics; Cambridge, Mass.). Percent inhibition values are obtained by comparing the level of LTB4 in the post-dose samples to the level in the pre-dose samples according to the equation below. [formula]

[2] = tested on: Leukotriene C4 production in mouse peritoneal macrophages; experiment: In vitro mouse peritoneal macrophage Leukotriene C4 inhibition; type: cell-based; details: zymosan stimulated, read-out: Percent Inhibition
Experimental: IN VITRO MOUSE PERITONEAL MACROPHAGE LEUKOTRIENE C4 INHIBITION
The test described below measures the ability of compounds to inhibit the production of Leukotriene C4 in mouse peritoneal macrophages.
Mice (female, CD-1, weighing 25 g) are euthanized by exposure to carbon dioxide. The pertoneal cavity is exposed by peeling back the abdominal skin. A 5 mL portion of media (M199 containing 1% fetal bovine serum, 100 units/mL of penicillin, 100 μg/mL streptomycin, 20 units/mL of heparin and no glutamine) is injected into the exposed peritoneal cavity of each mouse. The lavage fluid is removed and pooled to yield proximately 1×10^6 macrophages/mL. A 2 mL portion of lavage fluid is added to each well of a 24 well sterile multidish and the marcophages are allowed to adhere to the plate for 2 hours at 37° C. in a 5% carbon dioxide atmosphere. The media is removed and each well is washed with 2 mL of phosphate buffered saline (PBS). A 1 mL portion of media, without heparin, but containing 5 μCi/mL of 3H-myoinositol is added to each well and the plates are incubated overnight at 37° C. in a 5% carbon dioxide atmosphere. The media is removed and the cells are washed twice with 2 mL portions of PBS. A 1 mL portion of Puck's saline formulation A containing 1 mM calcium chloride, 1 mM magnesium chloride and 10 mM lithium chloride is added to each well. (The Puck's formulation is made first as a 10× solution which contains 4 g of potassium chloride, 80 g of sodium chloride and 10 g of glucose per liter. The Puck's saline formulation A is made using 10 mL of the 10× Puck's formulation, 0.47 mL of 7.5% sodium bicarbonate and 2 mL of 1M N-2-hydroxyethylpiperazine-N'-2-ethanesulfonic acid per 100 mL.)
Compounds are dissolved in dimethyl sulfoxide. Compounds are tested at concentrations of 10, 1 and 0.1 μM. Each concentration is tested in duplicate.
A 1 μL portion of compound solution or vehicle (DMSO) is added to each well and the plates are incubated for 15 minutes at 37° C. in a 5% carbon dioxide atmosphere. Zymosan is then added to provide a final concentration of 50 μg/mL in each well and the plate is incubated for 1 to 2 hours at 37° C. in a 5% carbon dioxide atmosphere.
Following incubation 200 μL portions of media are transferred to 12×75 mm tubes. The tubes are either assayed immediately or stored at -20° C. until they can be assayed.
The media is assayed for the presence of Leukotriene C4 by radioimmunoassay which is performed according to the manufacturer's instructions (Advanced Magnetics; Cambridge, Mass.). Inhibition of LTC4 production is calculated as the ratio of the amount of LTC4 formed in the presence (LTC4 +cpd) and absence (LTC4 no cpd)of compound according to the equation below. [formula] IC50 values (concentration of compound producing a 50% inhibition of LTC4 production) are calculated by linear regression analysis of percentage inhibition versus log compound concentration plots.

| SMILES | IC50 (5-lipoxygenase) [nM] | further results |
| --- | --- | --- |
| CCC(CC)N(O)C(=O)NCCCC(C)CNC(=O)N(O)C(CC)CC (centres unmarked) [Example 17, 1,1'-(2-Methylpentamethylene)bis(3-hydroxy-3-(1-ethylpropyl)urea)] | 12000 |  |
| CCC(CC)N(O)C(=O)Nc1ccc(NC(=O)N(O)C(CC)CC)cc1 [Example 15, 1,1'-(p-Phenylene)bis(3-hydroxy-3-(1-ethylpropyl)urea)] | 2100 |  |
| CCC(CC)N(O)C(=O)NC(C)(C)c1cccc(C(C)(C)NC(=O)N(O)C(CC)CC)c1 [Example 13, 1,1'-(m-Phenylene)bis(1-methyl-1-(3-hydroxy-3-(1-ethylpropyl)ureido)ethane)] | 65000 |  |
| CCC(CC)N(O)C(=O)Nc1ccc(Cc2ccc(NC(=O)N(O)C(CC)CC)cc2)cc1 [Example 12, 4,4'-Methylenebis(1-hydroxy-1-(1-ethylpropyl)-3-phenylurea)] |  | inhibition in vivo at 50 mg/kg [1]: 15%; inhibition at 0.1 µM ([2]; 0.1 μM): 83%; inhibition at 1 µM ([2]; 1.0 μM): 93%; inhibition at 10 µM ([2]; 10.0 μM): 100% |
| CCC(CC)N(O)C(=O)Nc1ccc(C)c(NC(=O)N(O)C(CC)CC)c1 [Example 16, 1,1'-(4-Methyl-m-phenylene)bis(3-hydroxy-3-(1-ethylpropyl)urea)] | 58600 |  |

More lines, main results first:

| IC50 (5-lipoxygenase) [nM] | SMILES | further results |
| --- | --- | --- |
| 110 | CCC(CC)N(O)C(=O)Nc1ccc(Cc2ccc(NC(=O)N(O)C(CC)CC)c(Cl)c2)cc1Cl [Example 19, 4,4'-Methylenebis(1-hydroxy-1-(1-ethylpropyl)-3-(2-chlorophenyl)urea)] |  |
| 330 | CCC(CC)N(O)C(=O)NCCCCCCCCNC(=O)N(O)C(CC)CC [Example 18, 1,1'-Octamethylenebis(3-hydroxy-3-(1-ethylpropyl)urea)] |  |
| 100 | CCC(CC)N(O)C(=O)Nc1ccc(Oc2ccc(NC(=O)N(O)C(CC)CC)cc2)cc1 [Example 14, 4,4'-Oxybis(1-hydroxy-1-(1-ethylpropyl)-3-phenylurea)] |  |
